Active and inactive are the calls of the source. No cut-off for these calls is given here.
Columns and labels:
A498 [1] = assay: Anticancer activity against human A498 cells assessed as reduction of cell viability at 70 nM relative to control; type: functional
Mus musculus [2] = assay: Antitubulin activity against human CCRF-CEM cells xenografted in IT dosed mouse assessed as decrease in tubulin level treated for 1 week by nano-immuno assay; type: functional, organism-based; conditions: time 1.0 weeks
Mus musculus [3] = assay: Antitubulin activity against human CCRF-CEM cells xenografted in IT dosed mouse assessed as fold decrease in tubulin fine needle aspirates treated for 1 week by nano-immuno assay relative to control; type: functional; conditions: time 1 weeks
[4] = Anticancer activity against human P493-6 cells assessed as reduction of cell viability at 140 nM relative to control; type: functional
[5] = Anticancer activity against human P493-6 cells assessed as reduction of cell viability at 280 nM relative to control; type: functional
[6] = Anticancer activity against human P493-6 cells assessed as reduction of cell viability at 70 nM relative to control; type: functional
[7] = Anticancer activity against human 6780 cell cells assessed as reduction of cell viability at 280 nM relative to control; type: functional
CCRF-CEM [8] = assay: Anticancer activity against human CCRF-CEM cells assessed as reduction of cell viability at 70 nM relative to control; type: functional
CCRF-CEM [9] = assay: Inhibition of lipid metabolism in human CCRF-CEM cells assessed as increase in mono glycerol level measured after 1 week treatment by DESI-MSI; type: functional, cell-based; conditions: time 1.0 weeks
CCRF-CEM [10] = assay: Anticancer activity against human CCRF-CEM cells assessed as reduction of cell viability at 280 nM relative to control; type: functional
KOPTK1 [11] = assay: Anticancer activity against human KOPT-K1 cells assessed as reduction of cell viability at 70 nM relative to control; type: functional
[12] = Anticancer activity against human 6780 cell cells assessed as reduction of cell viability at 70 nM relative to control; type: functional
[13] = Anticancer activity against human DND41 cells assessed as reduction of cell viability at 70 nM relative to control; type: functional
[14] = Anticancer activity against human 6780 cell cells assessed as reduction of cell viability at 140 nM relative to control; type: functional
KOPTK1 [15] = assay: Anticancer activity against human KOPT-K1 cells assessed as reduction of cell viability at 140 nM relative to control; type: functional
CCRF-CEM [16] = assay: Anticancer activity against human CCRF-CEM cells assessed as reduction of cell viability at 140 nM relative to control; type: functional
A498 [17] = assay: Antitumour activity against human A498 cells xenografted in mouse assessed as reduction of tumour weight, IT measured after 1 week; type: functional, cell-based; conditions: time 1.0 weeks
[18] = Anticancer activity against transgenic mouse RCC E28 cells assessed as reduction of cell proliferation at 140 nM for 48 hrs relative to 70 uM treatment; type: functional
CCRF-CEM [19] = assay: Antitumour activity against human CCRF-CEM xenografted in mouse assessed as reduction of tumour volume, IT measured after 1 week; type: functional; conditions: time 1.0 weeks
[20] = Anticancer activity against transgenic mouse RCC E28 cells assessed as reduction of cell proliferation at 70 nM for 48 hrs relative to control; type: functional; parameters: scale not given: the % may be the effect or the level left
KOPTK1 [21] = assay: Anticancer activity against human KOPT-K1 cells assessed as reduction of cell viability at 280 nM relative to control; type: functional
Tubulin (Homo sapiens) = Tubulin (Homo sapiens) (UniProt P68371+Q9H4B7+P0DPH7+P68366+Q13509+Q71U36+P04350+Q3ZCM7+P07437+P68363+Q9BQE3+Q6PEY2+Q13885+Q9BVA1+Q9BUF5); assay: Inhibition of tubulin polymerization (unknown origin); type: protein-complex assay

For `O=C1OCC2=C1C(c1cccc(Br)c1)c1cc3c(cc1N2CCO)CCC3` (stereo not drawn), the Activity (A498 [1]) was 90%.
In the case of `O=C1OCC2=C1C(c1ccccc1)c1cc3c(cc1N2CCO)OCO3` (stereo not drawn), the Activity (A498 [1]) is reported as 30%.
With `COc1cc(C2C3=C(COC3=O)N(CCO)c3cc4c(cc32)CCC4)cc(OC)c1OC` (stereo not drawn) the Activity (Mus musculus [2]) was “Active”, the “fold change (FC)” value (Mus musculus [3]) was 2 and the Activity [4] was 90%. It also gave an Activity [5] of 98%, an Activity [6] of 85% and an Activity [7] of 96%. The Activity (A498 [1]) was 95%, the Activity (CCRF-CEM [8]) was 90% and the inhibition (CCRF-CEM [9]) was “Active”. For the same compound, the Activity (CCRF-CEM [10]) was 96%, the Activity (KOPTK1 [11]) was 85% and the Activity [12] was 90%. The Activity [13] was 95%, the Activity [14] was 94% and the Activity (KOPTK1 [15]) was 87%. The Activity (CCRF-CEM [16]) was 92%, the Activity (A498 [17]) was “Active” and the “fold change (FC)” value [18] was 2. For the same compound, the Activity (CCRF-CEM [19]) was “Active”, the Activity [20] was 90% and the Activity (KOPTK1 [21]) was 89%. For the same compound, the inhibition (Tubulin (Homo sapiens)) was “Active”.
`O=C1OCC2=C1C(c1cccc(Br)c1)c1cc3c(cc1N2CCO)OCCO3` (stereo not drawn) gave an Activity (A498 [1]) of 87%.
Compound `O=C1OCC2=C1C(c1cccc(C(F)(F)F)c1)c1cc3c(cc1N2CCO)CCC3` (stereo not drawn) has an Activity (A498 [1]) of 83%.
With `O=C1OCC2=C1C(c1ccccc1)c1cc3c(cc1N2CCO)OCCO3` (stereo not drawn) the Activity (A498 [1]) was 30%.
In the case of `O=C1OCC2=C1C(c1cccc(C(F)(F)F)c1)c1cc3c(cc1N2CCO)OCCO3` (stereo not drawn), the Activity (A498 [1]) is reported as 80%.
